From patent publication US9023789B2, “Amylin analogs and pharmaceutical compositions thereof” (Novo Nordisk A/S, priority 2012, dated 2015)
pIC50: −log10 of the molar value. Numbered stars: 1 amine (or outer) side, 2 acyl side, 3 side chain; on linkers, the order of the positions; unused ones are H or OH. Bridge positions count the residues as written; N and C are the ends. Side chains are listed from the residue outwards. Peptide text beside a SMILES is read from it. * marks the point of attachment. C20 diacid = O=C(O)CCCCCCCCCCCCCCCCCCC(=O)*; γGlu = O=C(O)[C@H](CCC(=O)[*:2])N[*:1]

Experiments:
[1] = target: T1, rat amylin receptor (rat calcitonin receptor + rat RAMP 3) (Rattus norvegicus, UniProt P32214+Q9JJ73); assay: ASSAY (VI) binding to the rat amylin receptor; conditions: for pIC50: binding to rat amylin receptor, read-out: rAmylin-R bind IC50
T1 construct: expressed in transfected cells; host or cells: BHK tk'ts 13 (transient, FuGENE 6), membranes
T1 sequence (P32214 25-479 isoform P32214-2 limits assumed): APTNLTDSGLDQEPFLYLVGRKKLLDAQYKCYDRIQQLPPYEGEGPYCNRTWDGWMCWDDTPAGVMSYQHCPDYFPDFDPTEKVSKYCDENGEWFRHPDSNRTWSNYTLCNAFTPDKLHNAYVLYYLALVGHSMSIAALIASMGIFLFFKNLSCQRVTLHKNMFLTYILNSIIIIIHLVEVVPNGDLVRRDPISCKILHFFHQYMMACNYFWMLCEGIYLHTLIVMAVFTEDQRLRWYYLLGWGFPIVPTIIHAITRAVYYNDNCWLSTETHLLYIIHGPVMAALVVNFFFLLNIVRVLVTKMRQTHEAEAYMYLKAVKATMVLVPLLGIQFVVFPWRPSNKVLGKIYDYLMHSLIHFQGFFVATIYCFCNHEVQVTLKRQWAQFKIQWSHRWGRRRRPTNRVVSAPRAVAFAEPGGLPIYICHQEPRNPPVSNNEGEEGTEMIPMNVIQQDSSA
T1 sequence (Q9JJ73 23-147 partner): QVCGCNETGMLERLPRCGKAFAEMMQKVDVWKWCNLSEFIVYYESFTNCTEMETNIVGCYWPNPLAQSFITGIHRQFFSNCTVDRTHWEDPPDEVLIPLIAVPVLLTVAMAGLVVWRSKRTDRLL
In short: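 Membranes for this rat amylin receptor binding assay came from BHK tk′ts 13 cells. The cells were transiently transfected with rat calcitonin receptor using the FuGENE® 6 reagent from Roche, as the manufacturer recommends. The cells were collected approximately 48 hours after transfection, and membranes were then prepared.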

[2] = target: T2, rat calcitonin receptor (Rattus norvegicus, UniProt P32214); assay: ASSAY (VIII) binding to the rat calcitonin receptor; conditions: Table 7, read-out: rCTR bind IC50
T2 construct: expressed in transfected cells; host or cells: BHK tk'ts 13 (transient, FuGENE 6), membranes
T2 sequence (P32214 25-479 isoform P32214-2 limits assumed): T1 sequence (P32214 25-479 isoform P32214-2 limits assumed)
In short: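 BHK tk′ts 13 cells, transient rat calcitonin receptor transfection; DMEM + 10% FBS; harvest ~48 h post-transfection; membrane prep.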

[3] = test system: Sprague Dawley (SD) rats; assay: ASSAY (I) efficacy testing on appetite (food intake) using an ad libitum fed rat model; type: in vivo; conditions: rat, 30 nmol/kg
In short: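 Individual food consumption was logged each hour up to 7 h and again at 24 h, occasionally 48 h, with Grubbs-test outliers removed. Each 200–250 g Sprague Dawley rat, free-feeding in its home cage under reversed lighting, received a single ip, po or sc dose of 0.01–3 mg/kg at lights-off, alongside a vehicle group.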

[4] = Table 7, rat binding selectivity, rCTR IC50 / rAmylin-R IC50
[5] = Table 7a (preferred compounds), rat binding selectivity, rCTR IC50 / rAmylin-R IC50
[6] = ratio of rCTR bind IC50 to rAmylin-R bind IC50

SMILES | pIC50 ([1]; Table 7) | Ratio rCT/rAmylin binding [1, 4] | Ratio rCT/rAmylin binding [1, 5] | Ratio rCT/rAmylin binding [1, 6] | pIC50 [2] | Food intake reduction 0-24 h 30 nmol/kg (%) [3] | Food intake reduction 24-48 h 30 nmol/kg (%) [3]
CC[C@H](C)[C@H](NC(=O)[C@H](C)NC(=O)CNC(=O)[C@H](Cc1ccccc1)NC(=O)[C@H](CC(N)=O)NC(=O)[C@@H]1CCCN1C(=O)[C@H](CO)NC(=O)[C@H](CO)NC(=O)[C@H](Cc1c[nH]cn1)NC(=O)[C@H](CCCNC(=N)N)NC(=O)[C@H](CC(C)C)NC(=O)[C@H](Cc1ccccc1)NC(=O)[C@H](Cc1c[nH]cn1)NC(=O)[C@H](C)NC(=O)[C@H](CC(C)C)NC(=O)[C@H](CCCNC(=N)N)NC(=O)[C@H](CCC(N)=O)NC(=O)[C@@H](NC(=O)[C@H](C)NC(=O)[C@@H]1CSSC[C@H](NC(=O)[C@@H](N)CCCCNC(=O)CC[C@H](NC(=O)CCCCCCCCCCCCCCCCCCC(=O)O)C(=O)O)C(=O)N[C@@H](CC(N)=O)C(=O)N[C@@H]([C@@H](C)O)C(=O)N[C@@H](C)C(=O)N[C@@H]([C@@H](C)O)C(=O)N1)[C@@H](C)O)C(=O)N1CCC[C@H]1C(=O)N[C@@H](CO)C(=O)N[C@@H](CO)C(=O)N[C@H](C(=O)N[C@@H](CC(N)=O)C(=O)N[C@H](C(=O)NCC(=O)N[C@@H](CCCNC(=N)N)C(=O)N[C@@H](CC(N)=O)C(=O)N[C@H](C(=O)N[C@@H](Cc1ccc(O)cc1)C(N)=O)[C@@H](C)O)C(C)C)[C@@H](C)O [Example 85] (H-K([γGlu-C20 diacid])CNTATCATQRLAHFLRHSSPNFGAIPSSTNVGRNTY-NH2; disulfide 2-7 (inferred); N-terminus assumed) | 8.50 | 46.5 | 46.5 | 46.5 | 6.84 | 30% | 6%
CC[C@H](C)[C@H](NC(=O)[C@H](C)NC(=O)CNC(=O)[C@H](Cc1ccccc1)NC(=O)[C@H](CC(N)=O)NC(=O)[C@@H]1CCCN1C(=O)[C@H](CO)NC(=O)[C@H](CO)NC(=O)[C@H](Cc1c[nH]cn1)NC(=O)[C@H](CCCNC(=N)N)NC(=O)[C@H](CC(C)C)NC(=O)[C@H](Cc1ccccc1)NC(=O)[C@H](CC(N)=O)NC(=O)[C@H](C)NC(=O)[C@H](CC(C)C)NC(=O)[C@H](CCCNC(=N)N)NC(=O)[C@H](CCC(N)=O)NC(=O)[C@@H](NC(=O)[C@H](C)NC(=O)[C@@H]1CSSC[C@H](NC(=O)[C@@H](N)CCCCNC(=O)CC[C@H](NC(=O)CC[C@H](NC(=O)CCCCCCCCCCCCCCCCCCC(=O)O)C(=O)O)C(=O)O)C(=O)N[C@@H](CC(N)=O)C(=O)N[C@@H]([C@@H](C)O)C(=O)N[C@@H](C)C(=O)N[C@@H]([C@@H](C)O)C(=O)N1)[C@@H](C)O)C(=O)N1CCC[C@H]1C(=O)N[C@@H](CO)C(=O)N[C@@H](CO)C(=O)N[C@H](C(=O)N[C@@H](CC(N)=O)C(=O)N[C@H](C(=O)NCC(=O)N[C@@H](Cc1c[nH]cn1)C(=O)N[C@@H](CC(N)=O)C(=O)N[C@H](C(=O)N[C@@H](Cc1ccc(O)cc1)C(N)=O)[C@@H](C)O)C(C)C)[C@@H](C)O [Example 86] (H-K([γGlu-γGlu-C20 diacid])CNTATCATQRLANFLRHSSPNFGAIPSSTNVGHNTY-NH2; disulfide 2-7) | 8.55 | 125.7 | 125.7 | 125.7 | 6.45 | 48% | 26%

Continued, in another order:

pIC50 ([1]; Table 7) | Ratio rCT/rAmylin binding [1, 4] | Ratio rCT/rAmylin binding [1, 5] | Ratio rCT/rAmylin binding [1, 6] | pIC50 [2] | SMILES | Food intake reduction 0-24 h 30 nmol/kg (%) [3] | Food intake reduction 24-48 h 30 nmol/kg (%) [3]
8.68 | 45.6 | 45.6 | 45.6 | 7.02 | CC[C@H](C)[C@H](NC(=O)[C@H](C)NC(=O)CNC(=O)[C@H](Cc1ccccc1)NC(=O)[C@H](CC(N)=O)NC(=O)[C@@H]1CCCN1C(=O)[C@H](CO)NC(=O)[C@H](CO)NC(=O)[C@H](Cc1c[nH]cn1)NC(=O)[C@H](CCCNC(=N)N)NC(=O)[C@H](CC(C)C)NC(=O)[C@H](Cc1ccccc1)NC(=O)[C@H](CCC(=O)O)NC(=O)[C@H](C)NC(=O)[C@H](CC(C)C)NC(=O)[C@H](CCCNC(=N)N)NC(=O)[C@H](CCC(N)=O)NC(=O)[C@@H](NC(=O)[C@H](C)NC(=O)[C@@H]1CSSC[C@H](NC(=O)[C@@H](N)CCCCNC(=O)CC[C@H](NC(=O)CC[C@H](NC(=O)CCCCCCCCCCCCCCCCCCC(=O)O)C(=O)O)C(=O)O)C(=O)N[C@@H](CC(N)=O)C(=O)N[C@@H]([C@@H](C)O)C(=O)N[C@@H](C)C(=O)N[C@@H]([C@@H](C)O)C(=O)N1)[C@@H](C)O)C(=O)N1CCC[C@H]1C(=O)N[C@@H](CO)C(=O)N[C@@H](CO)C(=O)N[C@H](C(=O)N[C@@H](CC(N)=O)C(=O)N[C@H](C(=O)NCC(=O)N[C@@H](Cc1c[nH]cn1)C(=O)N[C@@H](CC(N)=O)C(=O)N[C@H](C(=O)N[C@@H](Cc1ccc(O)cc1)C(N)=O)[C@@H](C)O)C(C)C)[C@@H](C)O [Example 87] (H-K([γGlu-γGlu-C20 diacid])CNTATCATQRLAEFLRHSSPNFGAIPSSTNVGHNTY-NH2; disulfide 2-7) | 29% | 20%
8.64 | 84.9 | 84.9 | 84.9 | 6.71 | CC[C@H](C)[C@H](NC(=O)[C@H](C)NC(=O)CNC(=O)[C@H](Cc1ccccc1)NC(=O)[C@H](CC(N)=O)NC(=O)[C@@H]1CCCN1C(=O)[C@H](CO)NC(=O)[C@H](CO)NC(=O)[C@H](Cc1c[nH]cn1)NC(=O)[C@H](CCCNC(=N)N)NC(=O)[C@H](CC(C)C)NC(=O)[C@H](Cc1ccccc1)NC(=O)[C@H](CCC(=O)O)NC(=O)[C@H](C)NC(=O)[C@H](CC(C)C)NC(=O)[C@H](CCCNC(=N)N)NC(=O)[C@H](CCC(N)=O)NC(=O)[C@@H](NC(=O)[C@H](C)NC(=O)[C@@H]1CSSC[C@H](NC(=O)[C@@H](N)CCCCNC(=O)CC[C@H](NC(=O)CC[C@H](NC(=O)CCCCCCCCCCCCCCCCCCC(=O)O)C(=O)O)C(=O)O)C(=O)N[C@@H](CC(N)=O)C(=O)N[C@@H]([C@@H](C)O)C(=O)N[C@@H](C)C(=O)N[C@@H]([C@@H](C)O)C(=O)N1)[C@@H](C)O)C(=O)N1CCC[C@H]1C(=O)N[C@@H](CO)C(=O)N[C@@H](CO)C(=O)N[C@H](C(=O)N[C@@H](CC(N)=O)C(=O)N[C@H](C(=O)NCC(=O)N[C@@H](CCCNC(=N)N)C(=O)N[C@@H](CC(N)=O)C(=O)N[C@H](C(=O)N[C@@H](Cc1ccc(O)cc1)C(N)=O)[C@@H](C)O)C(C)C)[C@@H](C)O [Example 88] (H-K([γGlu-γGlu-C20 diacid])CNTATCATQRLAEFLRHSSPNFGAIPSSTNVGRNTY-NH2; disulfide 2-7) | 31% | 15%
8.63 | 48.8 | 48.8 | 48.8 | 6.94 | CC[C@H](C)[C@H](NC(=O)[C@H](C)NC(=O)CNC(=O)[C@H](Cc1ccccc1)NC(=O)[C@H](CC(N)=O)NC(=O)[C@@H]1CCCN1C(=O)[C@H](CO)NC(=O)[C@H](CO)NC(=O)[C@H](Cc1c[nH]cn1)NC(=O)[C@H](CCCNC(=N)N)NC(=O)[C@H](CC(C)C)NC(=O)[C@H](Cc1ccccc1)NC(=O)[C@H](CCC(=O)O)NC(=O)[C@H](C)NC(=O)[C@H](CC(C)C)NC(=O)[C@H](CCCNC(=N)N)NC(=O)[C@H](CCC(N)=O)NC(=O)[C@@H](NC(=O)[C@H](C)NC(=O)[C@@H]1CSSC[C@H](NC(=O)[C@@H](N)CCCCNC(=O)CC[C@H](NC(=O)CC[C@H](NC(=O)CCCCCCCCCCCCCCCCCCC(=O)O)C(=O)O)C(=O)O)C(=O)N[C@@H](CC(N)=O)C(=O)N[C@@H]([C@@H](C)O)C(=O)N[C@@H](C)C(=O)N[C@@H]([C@@H](C)O)C(=O)N1)[C@@H](C)O)C(=O)N1CCC[C@H]1C(=O)N[C@@H](CO)C(=O)N[C@@H](CO)C(=O)N[C@H](C(=O)N[C@@H](CC(N)=O)C(=O)N[C@H](C(=O)NCC(=O)N[C@@H](CO)C(=O)N[C@@H](CCCNC(=N)N)C(=O)N[C@H](C(=O)N[C@@H](Cc1ccc(O)cc1)C(N)=O)[C@@H](C)O)C(C)C)[C@@H](C)O [Example 89] (H-K([γGlu-γGlu-C20 diacid])CNTATCATQRLAEFLRHSSPNFGAIPSSTNVGSRTY-NH2; disulfide 2-7 (inferred); N-terminus assumed) | 46% | 37%
